Measurements: PubChem BioAssay (NCI)
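All cell lines were grown in 96-well plates and treated with compound for 48 hours. GI50: concentration for 50% inhibition of growth. At the TGI there is no net growth.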

How the values were obtained:
Assay in all cases: NCI-60 cell line screen, 48 h
[1] = test system: HCT-116 colon
[2] = test system: MDA-MB-435
[3] = test system: NCI-H226 lung
[4] = test system: NCI/ADR-RES ovarian
[5] = test system: OVCAR-3 ovarian
[6] = test system: OVCAR-4 ovarian
[7] = test system: OVCAR-8 ovarian
[8] = test system: SK-OV-3 ovarian
[9] = test system: HT29 colon
[10] = test system: HOP-92 NSCLC

SMILES	TGI [1]	TGI [2]	TGI [3]	TGI [4]	TGI [5]	TGI [6]	TGI [7]	TGI [8]	TGI [9]	TGI [10]	GI50 [1]	GI50 [2]
COP(=O)(CP(=O)(OC)OCCC(C)CCC=C(C)C)OC (centres undefined)	> 100 µM	> 100 µM	> 100 µM	> 100 µM	> 100 µM	> 100 µM	> 100 µM	> 100 µM				
CCn1c(CCCc2nc3c([nH]2)c(=O)n(C)c(=O)n3C)nc2c1c(=O)n(C)c(=O)n2C	> 100 µM	> 100 µM	30.6 µM	> 100 µM	> 100 µM	> 100 µM	> 100 µM	> 100 µM	> 100 µM			
O=C1Sc2ccccc2C(=O)N2CCSC12 (centres undefined)	> 100 µM				> 100 µM		> 100 µM	> 100 µM		> 100 µM		
O=c1c(O)c(-c2ccccc2)oc2c(CP(=O)(O)O)cccc12	> 100 µM	> 100 µM			> 100 µM	> 100 µM		> 100 µM				
NS(=O)(=O)c1nnc(NS(=O)(=O)c2cccc3cccnc23)s1	> 100 µM	> 100 µM	> 100 µM	> 100 µM	> 100 µM	> 100 µM	> 100 µM	> 100 µM		> 100 µM		
Cc1cn(C2CC(O)C(Cn3nncc3Cn3nc(Br)c(=O)[nH]c3=O)O2)c(=O)[nH]c1=O (centres undefined)	> 100 µM	> 100 µM	> 100 µM	> 100 µM	> 100 µM	> 100 µM	> 100 µM	> 100 µM		> 100 µM		
CCOC(=O)Cc1[nH]c(C(=O)c2ccccc2)cc1C(=O)c1ccccc1	33.4 µM	66 µM	65.8 µM	> 100 µM	> 100 µM	59.8 µM	> 10 µM	> 100 µM	> 10 µM			
N#CCCN(CCCCN(CCC#N)C(=O)Nc1ccccc1)C(=O)Nc1ccccc1	> 100 µM	> 100 µM	> 100 µM	> 100 µM	> 100 µM	> 100 µM	> 100 µM	> 100 µM	> 100 µM			
Cc1ccc(/C=c2\c(=O)[nH]c3nc4ccccc4c(=O)n23)cc1	> 100 µM	60.5 µM		> 100 µM	> 100 µM	> 100 µM	> 100 µM	> 100 µM		> 100 µM		
COc1cc2c3c(n(C)c(=O)c2cc1OC)-c1cc2c(cc1/C3=C\CCCCl)OCO2	> 100 µM	> 100 µM		> 100 µM		> 100 µM	> 100 µM	49.3 µM	> 100 µM	> 100 µM	40.4 µM	> 100 µM
CCOC(=O)c1nc2ccccc2nc1Nc1ccc(C(=O)OC)s1	> 100 µM	> 100 µM		> 100 µM	> 100 µM	> 100 µM	> 100 µM		> 100 µM	> 100 µM		
N#CC1=C(O)NC(O)=C(C#N)C1c1c(Cl)cccc1Cl	> 100 µM		64.9 µM		> 100 µM	> 100 µM	45 µM	69.1 µM	> 100 µM	43.9 µM		
O=S(=O)(O)c1cc(S(=O)(=O)O)c2cc(N=Nc3ccc(N=Nc4ccc(/C=C/c5ccc(N=[N+]([O-])c6ccc(/C=C/c7ccc(N=Nc8ccc(N=Nc9ccc%10cc(S(=O)(=O)O)cc(S(=O)(=O)O)c%10c9)cc8)cc7S(=O)(=O)O)c(S(=O)(=O)O)c6)cc5S(=O)(=O)O)c(S(=O)(=O)O)c4)cc3)ccc2c1	> 100 µM		> 100 µM	> 100 µM	> 31.6 µM	> 100 µM	> 100 µM	> 100 µM	> 100 µM	98.9 µM		
N=c1ncn(C/C=C/c2ccccc2)c2nc[nH]c12	> 100 µM	> 100 µM		> 100 µM	> 100 µM	> 100 µM	> 100 µM	> 100 µM	> 100 µM	> 100 µM		
Cc1nc(N)c(N2CCN(S(=O)(=O)N(Cc3ccccc3)Cc3ccccc3)CC2)c(=O)[nH]1	> 100 µM	88.8 µM	> 100 µM	> 100 µM	73.8 µM	93.6 µM	> 100 µM		63.3 µM			
CC1(C)CC(=O)c2c(N)n[nH]c2C1	> 100 µM	> 100 µM	> 100 µM	> 100 µM	> 100 µM	> 100 µM	> 100 µM		> 100 µM	> 100 µM		
C=C(C)C1(Sc2ccc(OC)cc2)CC1	> 100 µM	44 µM	54.7 µM	> 100 µM	29.7 µM	> 100 µM	> 100 µM	> 100 µM	61.8 µM			
Oc1ccc(-c2nc3cc(C(F)(F)F)ccc3s2)cc1	27.6 µM	29.5 µM	32.6 µM	35.5 µM	28.3 µM		29.4 µM	40.7 µM	35.9 µM			
